Data on 18 compounds can be found in ChEMBL document CHEMBL3044861, “Synthesis and Herbicidal Activity of New 2-(1-Carbamoyl-1, 2, 4-triazol-3-ylsulfonyl) alkanoates” (J Pestic Sci, 2002).

The nature of series [1]: Octanol-water partition coefficient, log K of the compound. It is filed as physicochemical. The following applies: read-out: log K.
In series [2] the test system is Echinochloa oryzicola. As to the kind of experiment: Herbicidal activity against Echinochloa oryzicola assessed as killing pre-emergence application under paddy conditions. It is filed as functional.
For the next series, the system named is Zea mays. The series is described as follows: Herbicidal activity against Zea mays (maize)assessed as killing at 500 g/ha pre-emergence application upland paddy conditions measured after 14 days. It is filed as functional.
For another series, the system named is Chenopodium album. As to the kind of experiment: Herbicidal activity against Chenopodium album assessed as killing at 500 g/ha pre-emergence application upland paddy conditions measured after 14 days. It is filed as functional.
The next series deals with Digitaria ciliaris. As to the kind of experiment: Herbicidal activity against Digitaria ciliaris assessed as killing at 500 g/ha pre-emergence application upland paddy conditions measured after 14 days. It is filed as functional.
Another series deals with Echinochloa crus-galli. As to the kind of experiment: Herbicidal activity against Echinochloa crus-galli (barnyard grass) assessed as killing at 500 g/ha pre-emergence application upland paddy conditions measured after 14 days. It is filed as functional.
Another series deals with Oryza sativa. As to the kind of experiment: Toxicity in Oryza sativa (rice) assessed as injury at 50 g/ha pre-emergence application under paddy conditions by crop safety assay. Type of series: organism-based. The following applies: in vivo, other.
Series [3] concerns Schoenoplectiella juncoides. As to the kind of experiment: Herbicidal activity against Schoenoplectiella juncoides assessed as killing at 50 g/ha pre-emergence application under paddy conditions. It is filed as functional.
For a further series, the system named is Pontederia vaginalis. The series is described as follows: Herbicidal activity against Monochoria vaginalis assessed as killing at 50 g/ha pre-emergence application under paddy conditions. It is filed as functional.
Series [4] can be described thus: Herbicidal activity against broadleaf weed assessed as killing at 50 g/ha pre-emergence application under paddy conditions. It is filed as functional.
In series [5] the test system is Echinochloa oryzicola. The series is described as follows: Herbicidal activity against Echinochloa oryzicola assessed as killing at 50 g/ha pre-emergence application under paddy conditions. Type of series: functional.

As for `CCN(CC)C(=O)n1cnc(S(=O)(=O)C(CC2CCCCC2)C(=O)OC)n1` (stereo not given), the logP in [1] was determined as 0.94. In addition, the “log(1/ED80)” value in the series on Echinochloa oryzicola [2] was determined as 1.2. The Activity in the series with Zea mays turned out to be 20%; in the series with Chenopodium album it was 40%; in the series on Digitaria ciliaris, 10%; with Echinochloa crus-galli it was 40%; in the series on Oryza sativa it was 10%; in series [3], 10%. The Activity was determined as 10% in the series on Pontederia vaginalis, 50% in [4] and 100% in the series on Echinochloa oryzicola [5].

As to `CCN(CC)C(=O)n1cnc(S(=O)(=O)C(C)C(=O)OC)n1` (stereo not given), the logP in series [1] turned out to be 0.41. Besides, in the series on Echinochloa oryzicola [2], the “log(1/ED80)” value is recorded as -0.1. For the same compound, the Activity in the series with Zea mays was 20%; in the series with Chenopodium album it was 60%; with Digitaria ciliaris, 80%; in the series on Echinochloa crus-galli, 60%; with Oryza sativa, 10%; in [3], 10%. Also, the Activity (with Pontederia vaginalis; in series [4]; with Echinochloa oryzicola [5]) was 10% throughout.

In the case of `CCC(CC)C(C(=O)OC)S(=O)(=O)c1ncn(C(=O)N(CC)CC)n1` (stereo not given), the logP in series [1] amounted to 0.76. Further, the “log(1/ED80)” value with Echinochloa oryzicola [2] is 1.4. Further, the Activity in the series with Zea mays is listed as 30%; in the series with Chenopodium album, 90%; in the series on Digitaria ciliaris it was 90%; in the series with Echinochloa crus-galli it was 100%; in the series on Oryza sativa, 10%; in series [3], 80%. In addition, the Activity with Pontederia vaginalis came out at 100%; in series [4] it was 90%; in the series on Echinochloa oryzicola [5] it was 100%.

Consider `CCN(CC)C(=O)n1cnc(S(=O)(=O)C(CC2CC2)C(=O)OC)n1` (stereo not given), for which the logP in series [1] stood at 0.6. The “log(1/ED80)” value with Echinochloa oryzicola [2] is 0.95. The Activity in the series on Zea mays is 60%; with Chenopodium album, 100%; with Digitaria ciliaris, 90%; in the series with Echinochloa crus-galli, 90%; in the series with Oryza sativa it was 10%; in series [3] it was 60%. Moreover, the Activity in the series with Pontederia vaginalis came out at 100%; in [4] it was 90%; in the series with Echinochloa oryzicola [5], 100%.

As for `CCCC(C(=O)OC)S(=O)(=O)c1ncn(C(=O)N(CC)CC)n1` (stereo not given), in series [1], the logP came to 0.58. Also, in the series with Echinochloa oryzicola [2], the “log(1/ED80)” value turned out to be 1.14. The Activity is 50% in the series on Zea mays; 100% with Chenopodium album; 100% with Digitaria ciliaris; 100% with Echinochloa crus-galli; 10% with Oryza sativa; 60% in series [3]. Besides, the Activity in the series with Pontederia vaginalis is 60%; in series [4], 60%; in the series on Echinochloa oryzicola [5], 100%.

As to `CC(C)CC(C(=O)OC(C)C)S(=O)(=O)c1ncn(C(=O)N2CCOCC2)n1` (stereo not given), the Activity (in series [3]; with Pontederia vaginalis; in series [4]; in the series with Echinochloa oryzicola [5]) was 10% in each case.

Turning to `CCN(CC)C(=O)n1cnc(S(=O)(=O)CC(=O)OC)n1`, the logP in series [1] amounted to 0.36. Besides, in the series with Echinochloa oryzicola [2], the “log(1/ED80)” value amounted to 0.18. The Activity in the series on Zea mays is 10%; in the series on Chenopodium album it was 30%; with Digitaria ciliaris it was 50%; in the series with Echinochloa crus-galli it was 40%; in the series on Oryza sativa, 10%; in [3], 10%. Moreover, the Activity (with Pontederia vaginalis; in series [4]; with Echinochloa oryzicola [5]) was 10% throughout.

Take `CCC(C)CC(C(=O)OC)S(=O)(=O)c1ncn(C(=O)N(CC)CC)n1` (stereo not given): the logP in series [1] was determined as 0.79. Further, the “log(1/ED80)” value in the series on Echinochloa oryzicola [2] is listed as 0.99. In addition, the Activity is recorded as 20% in the series with Zea mays; 100% in the series on Chenopodium album; 90% in the series with Digitaria ciliaris; 90% in the series on Echinochloa crus-galli; 10% in the series on Oryza sativa; 80% in series [3]. For the same compound, the results for the Activity (in the series with Pontederia vaginalis; in series [4]; in the series on Echinochloa oryzicola [5]) were 40%, 80% and 90%, respectively.

For `CCCCC(C(=O)OC)S(=O)(=O)c1ncn(C(=O)N(CC)CC)n1` (stereo not given), the logP in series [1] is 0.69. In the series with Echinochloa oryzicola [2], the “log(1/ED80)” value stood at 0.9. For the same compound, the Activity in the series on Zea mays was determined as 50%; in the series with Chenopodium album, 100%; in the series with Digitaria ciliaris, 90%; in the series with Echinochloa crus-galli it was 90%; with Oryza sativa it was 10%; in [3], 10%. Also, the figures for the Activity (with Pontederia vaginalis; in series [4]; with Echinochloa oryzicola [5]) were 40%, 30% and 90%, respectively.

For the compound `CC(C)CC(C(=O)OC(C)C)S(=O)(=O)c1ncn(C(=O)N2CCCC2)n1` (stereo not given), the Activity with Oryza sativa stood at 10%; in [3], 10%; in the series with Pontederia vaginalis, 10%; in series [4] it was 30%; in the series with Echinochloa oryzicola [5] it was 40%.

For `CC(C)CC(C(=O)OC(C)C)S(=O)(=O)c1ncn(C(=O)N(C)C2CCCCC2)n1` (stereo not given), the Activity in series [3] stood at 10%; in the series on Pontederia vaginalis it was 10%; in series [4], 50%; in the series with Echinochloa oryzicola [5], 30%.

Turning to `C=C(C)CC(C(=O)OC)S(=O)(=O)c1ncn(C(=O)N(CC)CC)n1` (stereo not given), the logP in series [1] amounted to 0.63. In addition, the “log(1/ED80)” value with Echinochloa oryzicola [2] was 0.95. Further, the Activity with Zea mays was found to be 40%; with Chenopodium album, 100%; with Digitaria ciliaris, 100%; in the series on Echinochloa crus-galli, 100%; in the series with Oryza sativa, 10%; in series [3], 60%. Also, the Activity in the series on Pontederia vaginalis came to 100%; in [4] it was 90%; in the series on Echinochloa oryzicola [5], 90%.

On to `CCN(CC)C(=O)n1cnc(S(=O)(=O)CCC(C)C)n1`, for which the Activity in the series on Oryza sativa amounted to 10%; in series [3], 10%; with Pontederia vaginalis, 10%; in series [4], 50%; in the series on Echinochloa oryzicola [5] it was 100%.

`CC(C)CC(C(=O)OC(C)C)S(=O)(=O)c1ncn(C(=O)N(C(C)C)C(C)C)n1` (stereo not given): the Activity turned out to be 30% in [3], 10% with Pontederia vaginalis, 60% in [4] and 60% in the series with Echinochloa oryzicola [5].

As to `CCN(CC)C(=O)n1cnc(S(=O)(=O)C(C(=O)OC)C(C)C)n1` (stereo not given), in series [1], the logP came to 0.56. The “log(1/ED80)” value in the series on Echinochloa oryzicola [2] was 1.24. For the same compound, the Activity in the series on Zea mays came out at 30%; in the series on Chenopodium album, 90%; with Digitaria ciliaris, 90%; in the series with Echinochloa crus-galli, 80%; in the series with Oryza sativa it was 40%; in [3], 100%. Further, the results for the Activity (in the series on Pontederia vaginalis; in [4]; in the series on Echinochloa oryzicola [5]) were 100%, 90% and 100%, respectively.

On to `CCN(CC)C(=O)C(CC(C)C)S(=O)(=O)c1ncn(C(=O)N(CC)CC)n1` (stereo not given), for which the Activity is 20% in the series with Oryza sativa; 10% in [3]; 10% with Pontederia vaginalis; 10% in series [4]; 10% with Echinochloa oryzicola [5].

As for `CC(C)CC(C(=O)OC(C)C)S(=O)(=O)c1ncn(C(=O)N(C)c2ccccc2)n1` (stereo not given), the Activity was 10% in [3], 10% in the series with Pontederia vaginalis, 40% in series [4] and 20% in the series with Echinochloa oryzicola [5].

With `CC(C)CC(C(=O)OC(C)C)S(=O)(=O)c1ncn(C(=O)N(C)C)n1` (stereo not given), the Activity in series [3] turned out to be 10%; in the series with Pontederia vaginalis, 10%; in series [4], 40%; with Echinochloa oryzicola [5], 60%.
